In the assay the target is Ribosomal protein S6 kinase alpha-2 (Homo sapiens, UniProt Q15349). In words: Inhibition of RSK3 (unknown origin).

Consider one compound from BindingDB's records for doi:10.1016/j.ejmech.2023.115229 (Sichuan University, 2023).

SMILES strings stand for the structures.

Chain of Ribosomal protein S6 kinase alpha-2 (Q15349 whole entry): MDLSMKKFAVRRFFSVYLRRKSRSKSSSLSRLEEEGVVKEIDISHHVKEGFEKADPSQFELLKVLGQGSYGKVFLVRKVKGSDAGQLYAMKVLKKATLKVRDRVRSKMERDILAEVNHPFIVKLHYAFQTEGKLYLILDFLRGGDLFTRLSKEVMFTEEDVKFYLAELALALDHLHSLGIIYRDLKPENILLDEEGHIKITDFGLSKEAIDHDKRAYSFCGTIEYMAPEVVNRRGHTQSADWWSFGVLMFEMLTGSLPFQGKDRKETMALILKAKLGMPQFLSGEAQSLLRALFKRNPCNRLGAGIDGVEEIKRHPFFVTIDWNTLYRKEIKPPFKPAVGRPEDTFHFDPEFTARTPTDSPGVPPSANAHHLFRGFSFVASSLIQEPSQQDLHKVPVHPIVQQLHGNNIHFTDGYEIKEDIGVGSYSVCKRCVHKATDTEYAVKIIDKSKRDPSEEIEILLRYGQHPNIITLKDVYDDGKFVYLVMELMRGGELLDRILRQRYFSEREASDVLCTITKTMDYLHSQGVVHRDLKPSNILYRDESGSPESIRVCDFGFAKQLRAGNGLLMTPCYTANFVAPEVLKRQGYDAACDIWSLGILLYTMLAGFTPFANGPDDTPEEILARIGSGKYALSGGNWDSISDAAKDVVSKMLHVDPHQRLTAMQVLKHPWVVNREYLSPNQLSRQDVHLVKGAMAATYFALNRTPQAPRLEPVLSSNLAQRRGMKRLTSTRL

For orientation: IC50 means the midpoint of a concentration-inhibition curve. A low value points to higher potency. `O=c1c(O)c(-c2ccc(O)c(O)c2)oc2cc(O)ccc12` [2-(3,4-dihydroxyphenyl)-3,7-dihydroxy-chromen-4-one] displayed an IC50 of 891 nM.
